Where two headings read alike, the source gives them in different places.
Assays:
[1] = test system: mono-methyl arginine in RKO cells; assay: RKO Methylation Assay (In Cell Western); type: cell-based; conditions: Homo sapiens, 72 hours
Text: RKO Methylation Assay RKO adherent cells were purchased from ATCC (American Type Culture Collection), Manassas, Va., USA. DMEM/Glutamax medium, penicillin-streptomycin, heat inactivated fetal bovine serum, 0.05% trypsin and D-PBS were purchased from Life Technologies, Grand Island, N.Y., USA. Odyssey blocking buffer, 800CW goat anti-rabbit IgG (H+L) antibody, and Licor Odyssey infrared scanner were purchased from Licor Biosciences, Lincoln, Nebr., USA. Mono-methyl arginine antibody was purchased from Cell Signaling Technology, Danvers, Mass., USA. Methanol was purchased from VWR, Franklin, Mass., USA. 10% Tween 20 was purchased from KPL, Inc., Gaithersburg, Md., USA. DRAQ5 was purchased from Biostatus Limited, Leicestershire, UK. RKO adherent cells were maintained in growth medium (DMEM/Glutamax medium supplemented with 10% v/v heat inactivated fetal bovine serum and 100 units/mL penicillin-streptomycin) and cultured at 37° C. under 5% CO2. Cell Treatment, in Cell Western (ICW) for Detection of Mono-Methyl Arginine and DNA Content. RKO cells were seeded in assay medium at a concentration of 20,000 cells per mL to a poly-D-lysine coated 384 well culture plate (BD Biosciences 356697) with 50 μL per well. Compound (100 nL) from a 96-well source plate was added directly to 384 well cell plate. Plates were incubated at 37° C., 5% CO2 for 72 hours. After three days of incubation, plates were brought to room temperature outside of the incubator for ten minutes and blotted on paper towels to remove cell media. 50 μL of ice cold 100% methanol was added directly to each well and incubated for 30 min at room temperature. After 30 min, plates were transferred to a Biotek EL406 plate washer and washed 2 times with 100 μL per well of wash buffer (1×PBS). Next 60 μL per well of Odyssey blocking buffer (Odyssey Buffer with 0.1% Tween 20 (v/v)) were added to each plate and incubated 1 hour at room temperature. Blocking buffer was removed and 20 μL per well of primary antibody was added (mono-methyl arginine diluted 1:200 in Odyssey buffer with 0.1% Tween 20 (v/v)) and plates were incubated overnight (16 hours) at 4° C. Plates were washed 5 times with 100 μL per well of wash buffer. Next 20 μL per well of secondary antibody was added (1:200 800CW goat anti-rabbit IgG (H+L) antibody, 1:1000 DRAQ5 (Biostatus limited) in Odyssey buffer with 0.1% Tween 20 (v/v)) and incubated for 1 hour at room temperature. The plates were washed 5 times with 100 μL per well wash buffer then 2 times with 100 μL per well of water. Plates were allowed to dry at room temperature then imaged on the Licor Odyssey machine which measures integrated intensity at 700 nm and 800 nm wavelengths. Both 700 and 800 channels were scanned. […] Each plate included fourteen control wells of DMSO only treatment (minimum activation) as well as fourteen control wells for maximum activation treated with 20 μM of a reference compound. The average of the ratio values for each control type was calculated and used to determine the percent activation for each test well in the plate. Reference compound was serially diluted three-fold in DMSO for a total of nine test concentrations, beginning at 20 μM. Percent activation was determined and EC30 curves were generated using triplicate

PRMT8 = target: T1, PRMT8 (Homo sapiens, UniProt Q9NR22); assay: PRMT8 Biochemical Assay
T1 construct: Full-length human PRMT8 (NM_019854.4) isoform 1 transcript clone; made in house; host or cells: E. coli BL21(DE3) Gold
T1 sequence (Q9NR22 whole entry, canonical isoform): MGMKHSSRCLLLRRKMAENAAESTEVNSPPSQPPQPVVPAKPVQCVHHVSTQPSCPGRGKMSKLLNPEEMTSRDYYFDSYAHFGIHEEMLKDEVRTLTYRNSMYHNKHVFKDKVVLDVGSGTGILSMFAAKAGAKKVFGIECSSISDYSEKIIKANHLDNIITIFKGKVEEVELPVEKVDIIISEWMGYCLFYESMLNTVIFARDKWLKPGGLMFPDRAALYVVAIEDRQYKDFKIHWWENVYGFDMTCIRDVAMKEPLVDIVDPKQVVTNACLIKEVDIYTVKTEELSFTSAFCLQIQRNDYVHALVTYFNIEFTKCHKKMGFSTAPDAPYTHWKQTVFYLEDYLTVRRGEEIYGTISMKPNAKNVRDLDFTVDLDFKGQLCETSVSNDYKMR
Text: Peptide representative of human histone H4 residues 31-45 was synthesized with an N-terminal linker-affinity tag motif and a C-terminal amide cap by 21st Century Biochemicals. The peptide was purified by high-performance liquid chromatography (HPLC) to greater than 95% purity and confirmed by liquid chromatography mass spectrometry (LC-MS). The sequence was Biot-Ahx-[…]-amide (SEQ ID NO.:8).
The resulting construct encodes an N-terminal GST tag and a thrombin cleavage sequence
The column was washed with 50 mM phosphate buffer, 100 mM NaCl, 5% glycerol, 5 mM […], pH 7.8 and PRMT8 was eluted by 100 mM phosphate in the same buffer. Protein was concentrated and buffer was exchanged to 50 mM Tris, 300 mM NaCl, 10% glycerol, 5 mM 3-mercaptoethanol, pH 7.8 by ultrafiltration. The purity of recovered protein was 89%.
General Procedure for PRMT8 Enzyme Assays on Peptide Substrates.
The assays were all performed in a buffer consisting of 20 mM Bicine (pH=7.6), 1 mM TCEP, 0.005% BSG, and 0.002% Tween 20, prepared on the day of use. Compounds in 100% DMSO (1 ul) were spotted into a polypropylene 384-well V-bottom plates (Greiner) using a Platemate Plus outfitted with a 384-channel head (Thermo Scientific). DMSO (1 ul) was added to Columns 11, 12, 23, 24, rows A-H for the maximum signal control and 1 ul of SAH, a known product and inhibitor of PRMT8, was added to columns 11, 12, 23, 24, rows I-P for the minimum signal control. A cocktail (40 ul) containing the PRMT8 enzyme was added by Multidrop Combi (Thermo-Fisher). The compounds were allowed to incubate with PRMT8 for 30 min at room temperature, then a cocktail (10 ul) containing ^3H-SAM and peptide was added to initiate the reaction (final volume=51 ul). The final concentrations of the components were as follows: PRMT8 was 1.5 nM, ^3H-SAM was 50 nM, non-radiolabeled SAM was 550 nM, peptide was 150 nM, SAH in the minimum signal control wells was 1 mM, and the DMSO concentration was 2%. The assays were stopped by the addition of non-radiolabeled SAM (10 ul) to a final concentration of 400 uM, which dilutes the ^3H-SAM to a level where its incorporation into the peptide substrate is no longer detectable. 50 ul of the reaction in the 384-well polypropylene plate was then transferred to a 384-well Flashplate and the biotinylated peptides were allowed to bind to the streptavidin surface for at least 1 hour before being washed once with 0.1% Tween20 in a Biotek ELx405 plate washer. The plates were then read in a PerkinElmer TopCount plate reader to measure the quantity of ^3H-labeled peptide bound to the Flashplate surface, measured as disintegrations per minute (dpm) or alternatively, referred to as counts per minute (cpm).
Where dpm=disintegrations per minute, cmpd=signal in assay well, and min and max are the respective minimum and maximum signal controls.
Where top and bottom are the normally allowed to float, but may be fixed at 100 or 0 respectively in a 3-parameter fit. The Hill Coefficient normally allowed to float but may also be fixed at 1 in a 3-parameter fit. Y is the % inhibition and X is the compound concentration.

[2] = numerical, single experiment or average of multiple experiments, read-out: In Cell Western EC30
[3] = read-out: In Cell Western EC30 (class)
[4] = Table 2, biochemical evaluation, read-out: PRMT8 IC50 (class)
[5] = Table 2a, numerical, single experiment or average of multiple experiments, read-out: PRMT8 IC50

SMILES | EC30 [1, 2] [µM] | EC30 [1, 3] [µM] | IC50 (PRMT8; [4]) [µM] | IC50 (PRMT8; [5]) [µM]
CN(CCN)Cc1ncoc1-c1ccc(C#N)cc1 [Compound 1, 4-(4-(((2-aminoethyl)(methyl)amino)methyl)oxazol-5-yl)benzonitrile] | 14.2 | ≥ 12 | 3.01 to 10 | 1.87
CN(CCN)Cc1ccnn1-c1ccc(C#N)cc1 [Compound 2, 4-(5-(((2-aminoethyl)(methyl)amino)methyl)-1H-pyrazol-1-yl)benzonitrile] | 15.1 | ≥ 12 | 1.01 to 3 | 1.3
CN(CCN)Cc1n[nH]nc1-c1ccc(C#N)cc1 [Compound 3, 4-(5-(((2-aminoethyl)(methyl)amino)methyl)-2H-1,2,3-triazol-4-yl)benzonitrile] | 18.6 | ≥ 12 | 1.01 to 3 | 1.55
CN(CCN)Cc1ocnc1-c1ccc(C#N)cc1 [Compound 4, 4-(5-(((2-aminoethyl)(methyl)amino)methyl)oxazol-4-yl)benzonitrile] | 1.41 | ≤ 3 | 0.101 to 1 | 0.509
CN(CCN)Cc1cnnn1-c1ccc(C#N)cc1 [Compound 5, 4-(5-(((2-aminoethyl)(methyl)amino)methyl)-1H-1,2,3-triazol-1-yl)benzonitrile] | > 20 | ≥ 12 | – | –
CN(CCN)Cc1cncn1-c1ccc(C#N)cc1 [Compound 6, 4-(5-(((2-aminoethyl)(methyl)amino)methyl)-1H-imidazol-1-yl)benzonitrile] | > 20 | ≥ 12 | 3.01 to 10 | 8.21
CN(CCN)Cc1nsnc1-c1ccc(C#N)cc1 [Compound 7, 4-(4-(((2-aminoethyl)(methyl)amino)methyl)-1,2,5-thiadiazol-3-yl)benzonitrile] | > 20 | ≥ 12 | 0.101 to 1 | 0.445
CC(C)Oc1ccc(-n2nccc2CN(C)CCN)cc1 [Compound 8, N^1-((1-(4-isopropoxyphenyl)-1H-pyrazol-5-yl)methyl)-N^1-methylethane-1,2-diamine] | 1.63 | ≤ 3 | < 0.1 | 0.0897
CN(CCN)Cc1ccnn1-c1ccc(Oc2ccccc2)cc1 [Compound 9] | 2.31 | ≤ 3 | < 0.1 | 0.0718
CN(CCN)Cc1[nH]cnc1-c1ccc(C#N)cc1 [Compound 10, 4-(5-(((2-aminoethyl)(methyl)amino)methyl)-1H-imidazol-4-yl)benzonitrile] | > 20 | ≥ 12 | 3.01 to 10 | 3.13
CN(CCN)Cc1oncc1-c1ccc(F)cc1 [Compound 11, N^1-((4-(4-fluorophenyl)isoxazol-5-yl)methyl)-N^1-methylethane-1,2-diamine] | > 20 | ≥ 12 | > 10 | > 10
